Test system: motor neuron / skeletal muscle tissue (neuromuscular junction) of the evaluation model
Experiment: Contraction of skeletal muscle tissue caused by stimulation of motor neurons in the evaluation model (device a), moving-image analysis
Format: cell-based, human

Row | Compound | contraction of a skeletal muscle tissue after addition of the drug
1 | N[C@@H](CCC(=O)O)C(=O)O [glutamic acid, Glutamic acid] | causes contraction of a skeletal muscle tissue
2 | NC1=N[C@H](O)[C@H]2[C@H]3O[C@]4(O)O[C@@H]([C@@H](O)[C@@]2(N1)[C@@H]4O)[C@]3(O)CO [tetrodotoxin] | stops contraction of a skeletal muscle tissue

— patent US12668763B2, “Co-culturing device, motor neuron culturing device, multi-well plate, fabrication method of in vitro evaluation model of neuromuscular disease, and screening method of therapeutic agent against neuromuscular disease” (priority 2019, dated 2026)
